Patent US20250098683A1 (priority 2018, published 2025)

Experiments:
bacteria [1] = experiment: Treated, dried seeds placed on LB or PDA plates; type: cell-based
Experimental: (§1) Carrot, Swiss chard, and spinach seeds (1 kg, 5 kg, and 5 kg respectively) were placed into separate Petri dishes. From each of these seeds, 9 samples were taken, each sample weighing 50 grams. […] The liquid of carrot and Swiss chard treatments were streaked on LB media plates, and kept in a 37 degrees Celsius incubator overnight, and inspected for bacterial growth on the following day. The treated seed were dried in 40 C oven for three days, and some seeds were placed on LB or PDA plates.

bacteria [2] = experiment: Seed wash liquid streaked on LB media plates, inspected for bacterial growth; type: cell-based; conditions: treated five minutes, 37 C overnight
Experimental: as §1

Question: For `[Na+].[O-]Cl` [1.2% bleach, Sodium hypochlorite], which “Swiss chard seeds from which bacteria were found” value (bacteria [1]; Swiss chard seeds on LB plates) is on record?
Answer: about 50%

Question: And the “carrot seeds from which bacteria were found” value (bacteria [1]; carrot seeds, three days after placing on LB plates)?
Answer: about 50%

Question: What about the “microbes found from spinach seed” value (bacteria [1]; spinach seeds on plates) of the same molecule?
Answer: both fungal and bacterial microbes were found

Question: What about the “bacteria in wash liquid after Swiss chard seeds were washed” value (bacteria [2]; Swiss chard seeds) of the same molecule?
Answer: some bacteria

Question: And the “bacteria in wash liquid after carrot seeds were washed” value (bacteria [2]; carrot seeds)?
Answer: some bacteria
